Measurements as given in the supplement of paper PMC10733146.

Key:
Assay in all cases: viability relative to DMSO control (fraction); higher = less drug effect (more viable cells)
Conditions in all cases: 48 h
Chlorambucil = compound: O=C(O)CCCc1ccc(N(CCCl)CCCl)cc1 [Chlorambucil]
Method in brief: (§1)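 In 384-well plates with compounds pre-plated at five concentrations (one well per concentration), primary mononuclear tumour cells were plated at 4 × 10^4 cells per well. The cells came from blood or bone marrow by Ficoll isolation or from processed lymph node, and were used fresh or cryopreserved. Culture ran for 48 h at 37 °C and 5% CO2 in RPMI-1640 containing penicillin/streptomycin, L-glutamine and human serum. Viability was read as CellTiter-Glo luminescence, normalised to the median of 16 inner DMSO wells.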

SGC 0946 = compound: CC(C)N(CCCNC(=O)Nc1ccc(C(C)(C)C)cc1)C[C@H]1O[C@@H](n2cc(Br)c3c(N)ncnc32)[C@H](O)[C@@H]1O [SGC 0946]
Method in brief: as §1

Pomalidomide = compound: Nc1cccc2c1C(=O)N(C1CCC(=O)NC1=O)C2=O [Pomalidomide]
Method in brief: as §1

[1] = compound: O=C(NO)c1cccc(C(=O)NCCc2ccccc2)c1
Method in brief: as §1

CPI-169 = compound: CCS(=O)(=O)N1CCC([C@@H](C)n2c(C)c(C(=O)NCc3c(OC)cc(C)[nH]c3=O)c3ccccc32)CC1 [CPI-169]
Method in brief: as §1

Bendamustine = compound: Cn1c(CCCC(=O)O)nc2cc(N(CCCl)CCCl)ccc21 [Bendamustine]
Method in brief: as §1

Thalidomide = compound: O=C1CCC(N2C(=O)c3ccccc3C2=O)C(=O)N1 [Thalidomide]
Method in brief: as §1

Midostaurin hydrate = compound: CO[C@@H]1[C@H](N(C)C(=O)c2ccccc2)C[C@H]2O[C@]1(C)n1c3ccccc3c3c4c(c5c6ccccc6n2c5c31)C(=O)NC4 [Midostaurin hydrate]
Method in brief: as §1

Tofacitinib = compound: C[C@@H]1CCN(C(=O)CC#N)C[C@@H]1N(C)c1ncnc2[nH]ccc12 [Tofacitinib]
Method in brief: as §1

Filgotinib = compound: O=C(Nc1nc2cccc(-c3ccc(CN4CCS(=O)(=O)CC4)cc3)n2n1)C1CC1 [Filgotinib]
Method in brief: as §1

EPZ-6438 = compound: CCN(c1cc(-c2ccc(CN3CCOCC3)cc2)cc(C(=O)NCc2c(C)cc(C)[nH]c2=O)c1C)C1CCOCC1 [EPZ-6438]
Method in brief: as §1

Idasanutlin (RS7388) = compound: COc1cc(C(=O)O)ccc1NC(=O)[C@@H]1N[C@@H](CC(C)(C)C)[C@](C#N)(c2ccc(Cl)cc2F)[C@H]1c1cccc(Cl)c1F [Idasanutlin (RS7388)]
Method in brief: as §1

Venetoclax = compound: CC1(C)CCC(CN2CCN(c3ccc(C(=O)NS(=O)(=O)c4ccc(NCC5CCOCC5)c([N+](=O)[O-])c4)c(Oc4cnc5[nH]ccc5c4)c3)CC2)=C(c2ccc(Cl)cc2)C1 [Venetoclax]
Method in brief: as §1

I-BET-762 = compound: CCNC(=O)C[C@@H]1N=C(c2ccc(Cl)cc2)c2cc(OC)ccc2-n2c(C)nnc21 [I-BET-762]
Method in brief: as §1

primary AML patient cells (S055)
viability (Chlorambucil; 0.032 µM): 0.993 | viability (Chlorambucil; 0.16 µM): 1.04 | viability (Chlorambucil; 0.8 µM): 0.988 | viability (Chlorambucil; 4 µM): 0.997 | viability (Chlorambucil; 20 µM): 0.841 | viability (SGC 0946; 0.024 µM): 0.987 | viability (SGC 0946; 0.12 µM): 1 | viability (SGC 0946; 0.6 µM): 1.02 | viability (SGC 0946; 3 µM): 0.986 | viability (SGC 0946; 15 µM): 0.836 | viability (Pomalidomide; 0.0032 µM): 0.955 | viability (Pomalidomide; 0.016 µM): 0.951 | viability (Pomalidomide; 0.08 µM): 0.978 | viability (Pomalidomide; 0.4 µM): 0.966 | viability (Pomalidomide; 2 µM): 0.975 | viability ([1]; 0.024 µM): 0.923 | viability ([1]; 0.12 µM): 1.01 | viability ([1]; 0.6 µM): 0.907 | viability ([1]; 3 µM): 0.975 | viability ([1]; 15 µM): 0.997 | viability (CPI-169; 0.024 µM): 0.982 | viability (CPI-169; 0.12 µM): 0.989 | viability (CPI-169; 0.6 µM): 1.07 | viability (CPI-169; 3 µM): 1.03 | viability (CPI-169; 15 µM): 1 | viability (Bendamustine; 0.032 µM): 0.978 | viability (Bendamustine; 0.16 µM): 1.02 | viability (Bendamustine; 0.8 µM): 0.995 | viability (Bendamustine; 4 µM): 0.995 | viability (Bendamustine; 20 µM): 0.952 | viability (Thalidomide; 0.032 µM): 0.916 | viability (Thalidomide; 0.16 µM): 0.94 | viability (Thalidomide; 0.8 µM): 0.894 | viability (Thalidomide; 4 µM): 0.931 | viability (Thalidomide; 20 µM): 0.876 | viability (Midostaurin hydrate; 0.024 µM): 1.06 | viability (Midostaurin hydrate; 0.12 µM): 1.02 | viability (Midostaurin hydrate; 0.6 µM): 1.09 | viability (Midostaurin hydrate; 3 µM): 1.12 | viability (Midostaurin hydrate; 15 µM): 1.1 | viability (Tofacitinib; 0.024 µM): 0.979 | viability (Tofacitinib; 0.12 µM): 0.964 | viability (Tofacitinib; 0.6 µM): 0.913 | viability (Tofacitinib; 3 µM): 0.949 | viability (Tofacitinib; 15 µM): 0.946 | viability (Filgotinib; 0.024 µM): 0.942 | viability (Filgotinib; 0.12 µM): 0.936 | viability (Filgotinib; 0.6 µM): 0.959 | viability (Filgotinib; 3 µM): 0.916 | viability (Filgotinib; 15 µM): 0.594 | viability (EPZ-6438; 0.024 µM): 1.01 | viability (EPZ-6438; 0.12 µM): 1.04 | viability (EPZ-6438; 0.6 µM): 0.976 | viability (EPZ-6438; 3 µM): 0.97 | viability (EPZ-6438; 15 µM): 0.917 | viability (Idasanutlin (RS7388); 0.032 µM): 0.872 | viability (Idasanutlin (RS7388); 0.16 µM): 0.934 | viability (Idasanutlin (RS7388); 0.8 µM): 0.694 | viability (Idasanutlin (RS7388); 4 µM): 0.389 | viability (Idasanutlin (RS7388); 20 µM): 0.229

primary DLBCL patient cells (S049)
viability (Chlorambucil; 0.032 µM): 0.96 | viability (Chlorambucil; 0.16 µM): 0.976 | viability (Chlorambucil; 0.8 µM): 1.05 | viability (Chlorambucil; 4 µM): 0.952 | viability (Chlorambucil; 20 µM): 0.589 | viability (SGC 0946; 0.024 µM): 0.919 | viability (SGC 0946; 0.12 µM): 1.05 | viability (SGC 0946; 0.6 µM): 0.926 | viability (SGC 0946; 3 µM): 0.719 | viability (SGC 0946; 15 µM): 0.183 | viability (Pomalidomide; 0.0032 µM): 0.959 | viability (Pomalidomide; 0.016 µM): 1.11 | viability (Pomalidomide; 0.08 µM): 1 | viability (Pomalidomide; 0.4 µM): 0.899 | viability (Pomalidomide; 2 µM): 0.948 | viability ([1]; 0.024 µM): 0.886 | viability ([1]; 0.12 µM): 0.986 | viability ([1]; 0.6 µM): 0.966 | viability ([1]; 3 µM): 1.02 | viability ([1]; 15 µM): 1.05 | viability (Venetoclax; 0.00064 µM): 0.898 | viability (Venetoclax; 0.0032 µM): 0.593 | viability (Venetoclax; 0.016 µM): 0.149 | viability (Venetoclax; 0.08 µM): 0.0521 | viability (Venetoclax; 0.4 µM): 0.0447 | viability (CPI-169; 0.024 µM): 1.03 | viability (CPI-169; 0.12 µM): 1.02 | viability (CPI-169; 0.6 µM): 1.05 | viability (CPI-169; 3 µM): 0.991 | viability (CPI-169; 15 µM): 0.97 | viability (I-BET-762; 0.008 µM): 0.982 | viability (I-BET-762; 0.04 µM): 1.02 | viability (I-BET-762; 0.2 µM): 0.987 | viability (I-BET-762; 1 µM): 0.552 | viability (I-BET-762; 5 µM): 0.246 | viability (Bendamustine; 0.032 µM): 0.986 | viability (Bendamustine; 0.16 µM): 0.994 | viability (Bendamustine; 0.8 µM): 1.05 | viability (Bendamustine; 4 µM): 1.11 | viability (Bendamustine; 20 µM): 0.937 | viability (Thalidomide; 0.032 µM): 0.902 | viability (Thalidomide; 0.16 µM): 0.864 | viability (Thalidomide; 0.8 µM): 0.918 | viability (Thalidomide; 4 µM): 0.968 | viability (Thalidomide; 20 µM): 1.03 | viability (Tofacitinib; 0.024 µM): 0.811 | viability (Tofacitinib; 0.12 µM): 0.775 | viability (Tofacitinib; 0.6 µM): 0.926 | viability (Tofacitinib; 3 µM): 1.01 | viability (Tofacitinib; 15 µM): 1.32 | viability (Filgotinib; 0.024 µM): 0.918 | viability (Filgotinib; 0.12 µM): 0.969 | viability (Filgotinib; 0.6 µM): 1.03 | viability (Filgotinib; 3 µM): 0.926 | viability (Filgotinib; 15 µM): 0.203 | viability (EPZ-6438; 0.024 µM): 1.08 | viability (EPZ-6438; 0.12 µM): 1.08 | viability (EPZ-6438; 0.6 µM): 1.03 | viability (EPZ-6438; 3 µM): 1.05 | viability (EPZ-6438; 15 µM): 0.811
